Laboratory results from patent US8859490B2, “Peptide nucleic acid monomers and oligomers” (Nanyang Technological University, priority 2008, dated 2014).
Entries after “also recorded” stand apart in the source; their conditions may differ.

System: Hela cells
Assay: Cell uptake of FAM-labelled oligomers, fluorescence confocal microscopy
Type: cell-based
Settings: fluorescein-labelled, 0.5 μM, 24 h, 37° C.
Method: Culture and transfection of Hela cells with fluorescein-labeled aegPNA, AP-PNA, GP-PNA oligomers and Tat peptide were carried out according to previously published protocols (Janowski, B. A., et al., Nature Protocols (2006) 1, 436; Shiraishi, T., &. Nielsen, P. E., Nature Protocols (2006) 1, 633). Hela cells were grown in 75-cm^2 culture flasks at 37° C. in an atmosphere of 5% CO2 in Hyclone DMEM/High Glucose medium without antibiotics and were plated at 100,000 cells per well on 6-well Lab-Tek chambered coverglass slides in DMEM medium and cultured two days before transfection. Oligomer solutions were prepared by diluting a 200 μM stock solution at 1×PBS buffer to 0.5 μM with warmed (37° C.) medium. The cell medium was discarded and cells were washed with 1×PBS buffer followed by incubation with the above prepared oligomers at a concentration of 0.5 μM for 24 h at 37° C. in an atmosphere of 5% CO2. The medium was removed and cells were washed with 1×PBS buffer (2 mL×3) and fixed with […]. The cells were imaged with Olympus IX51 fitted with Cool SNAP^HQ camera and analyzed using Metamorph software (Molecular Devices).
For the present example the GP-PNA and AP-PNA with the 6-C spacer was chose to examine the cell-uptake activity, since these display the strongest binding affinity when complexed to complementary DNA. Dodecamer aegPNA (Fl-TAGTAGATCACT-Gly-NH2) (SEQ ID NO:1), AP-PNA (Fl-TA^6aGT^6aAG^6aAT^6aCA^6aCT^6a-Gly-NH2) (SEQ ID NO:2), GP-PNA (Fl-TA^6gGT^6gAG^6gAT^6gCA^6gCT^6g-Gly-NH2) (SEQ ID NO:3) oligomers and Tat peptide (Fl-Tyr-Gly-Arg-Lys-Lys-Arg-Arg-Gln-Arg-Arg-Arg-NH2) (SEQ ID NO:4) were synthesized and labeled by fluorescein at the N-terminus. These oligomers were incubated with Hela cells for 24 h at 37° C. and were fixed by paraformaldehyde after PBS (1×) buffer washing. Their uptake properties were determined by fluorescence confocal microscopy. […] To conclude, the guanidino groups pendant from the backbone amide nitrogen confer cell-permeability to the modified PNAs.

| Substance | cell uptake (fluorescence in cells) |
| --- | --- |
| Fl-TAGTAGATCACT-Gly-NH2 [aegPNA, reference compound] | poor cell uptake property |
| Fl-TA^6aGT^6aAG^6aAT^6aCA^6aCT^6a-Gly-NH2 [AP-PNA] | better cell uptake property than the aegPNA; also recorded: moderate enhancement in cell uptake activity compared with aegPNA |
| Fl-TA^6gGT^6gAG^6gAT^6gCA^6gCT^6g-Gly-NH2 [GP-PNA] | clear and strong fluorescence images were detected in almost all cells; also recorded: readily taken up by Hela cells |
